Measurements as given in patent publication US9636336B2, “Aminoester derivatives” (CHIESI FARMACEUTICI S.p.A., priority 2015, dated 2017).
pIC50, pKi: −log10 of the molar value. Read-outs that look alike come from different tables or passages of the source.

Columns and labels:
[1] = test system: Cch-evoked bronchoconstriction in rats; test: Bronchospasm, percentage of inhibition (Cch-induced bronchoconstriction, duration of action); assay type: in vivo, Male CD Sprague Dawley rats; details: rat; for sub-maximal inhibition Dose: Dose producing about 80% (sub-maximal) inhibition of the bronchospasm after 1 h, intratracheal; for inhibition at 16 h: inhibition of bronchospasm 16 h after intratracheal administration of the sub-maximal inhibition dose
Procedure: Protocol of Bronchospasm—Percentage of Inhibition
Male CD Sprague Dawley rats (220-250 g) were purchased from Charles River Laboratories Italy (Calco, Lecco). Prior to use animals were acclimated for at least 5 days to the local vivarium conditions (room temperature: 20-24° C.; relative humidity: 40-70%), having free access to standard rat chow and softened tap water. All the procedures were performed in animal operating rooms according to ethical guidelines for the conduct of animal research (D. L.vo 116/92).
Treatment with Test Compounds
Animals were anaesthetised with Urethane (1.2 g/kg, i.p.) and a laryngoscope was moved forward into the mouth to visualize the trachea and guide the insertion of the tip of a custom made small diameter cannula directly into the trachea and located 1-2 mm above the bifurcation. Test compounds were dissolved in 100% dimethyl sulphoxide (DMSO) at 10^−2 M. The target concentration was obtained by dilution of the DMSO stock in saline. Test compounds were instilled locally into the trachea in a volume of 125 μl.
In order to assess the residual inhibitory activity of test compounds at 1-16 hours after their administration, rats were surgically prepared. In order to assess the Cch-induced bronchoconstriction in rats, the infusion of physiological solution was stopped and the bronchospastic agent injected into the jugular vein using the same cannula. Soon after washing the cannula with saline to ensure the complete administration of the bronchoconstrictor agent, the saline infusion was started again. Body temperature was kept constant at 37° C. by a heated blanket.
The trachea was cannulated and the lungs were ventilated artificially with a small animal constant volume ventilator (rodent ventilator mod. 7025, Ugo Basile, Comerio, Varese, Italy) at a frequency of 80 strokes/min and at a tidal volume of 2.5 ml/kg. To avoid spontaneous breathing, the animals were injected intravenously (i.v.) with pancuronium bromide (2 mg/kg). Bronchoconstriction was induced by the i.v. injection of Cch 50 μg/kg. In control experiments, repeated injections of this dose produced reproducible short-lasting (1-2 min duration) bronchospasms. Bronchoconstriction, quantified as a reduction of tidal volume, was evaluated according to the method described by Konzett & Roessler in Konzett H. and Roessler R., Versuchanornungzu untersuchungen ande bronchialmuskulatur. Arch. Exp. Path. Pharmak.; 195:71-74 (1940), which is incorporated herein by reference in its entirety.
Systemic blood pressure and changes in airway resistance were monitored with a digital pressure transducer connected to a bridge amplifier (PowerLab; Ugo Basile, Italy) and recorded using Chart 5 software (Ugo Basile, Italy).
After stabilization of artificial breathing and blood pressure, animals were injected (i.v.) with Cch every 3 min, until 3 stable and reproducible basal responses were obtained. […] The effect of test compounds was expressed as % inhibition of Cch-evoked bronchoconstriction in time-matched, vehicle-treated, animals (controls).

[2] = test system: smoking model of COPD in mice; details: cited from earlier work
COPD patients = details: cited from earlier work
[3] = target: Human M3 receptor membranes (Homo sapiens (Human), UniProt P20309); test: M3 Receptor radioligand binding assay; details: M3 Receptor radioligand binding assay; for pKi: Ki from IC50 by Cheng and Prusoff
Procedure: M3 Receptor Radioligand Binding Assay:
The assay is carried out in 96-well polypropylene plates in a volume of 250 μl. […] The final assay concentration of DMSO is 0.5% (v/v). The plates are sealed and incubated for 2 h at room temperature on an orbital shaker (slow speed). Membranes are harvested onto 96-well unifilter GF/C filter plates pre-treated with 0.5% polyethyleneimine (v/v), using a filter manifold, washed four times with 200 μl of assay buffer. The plates are dried before addition of 50 μl of microscint-0, sealed then read in a Trilux Microbeta scintillation counter. IC50 values are determined from competition curves using a non-linear curve fitting program. Ki values are calculated from IC50 values by the Cheng and Prusoff equation.

[4] = patients with severe disease, frequent exacerbations and mucus hypersecretion

Sequence of Human M3 receptor membranes (P20309 whole entry): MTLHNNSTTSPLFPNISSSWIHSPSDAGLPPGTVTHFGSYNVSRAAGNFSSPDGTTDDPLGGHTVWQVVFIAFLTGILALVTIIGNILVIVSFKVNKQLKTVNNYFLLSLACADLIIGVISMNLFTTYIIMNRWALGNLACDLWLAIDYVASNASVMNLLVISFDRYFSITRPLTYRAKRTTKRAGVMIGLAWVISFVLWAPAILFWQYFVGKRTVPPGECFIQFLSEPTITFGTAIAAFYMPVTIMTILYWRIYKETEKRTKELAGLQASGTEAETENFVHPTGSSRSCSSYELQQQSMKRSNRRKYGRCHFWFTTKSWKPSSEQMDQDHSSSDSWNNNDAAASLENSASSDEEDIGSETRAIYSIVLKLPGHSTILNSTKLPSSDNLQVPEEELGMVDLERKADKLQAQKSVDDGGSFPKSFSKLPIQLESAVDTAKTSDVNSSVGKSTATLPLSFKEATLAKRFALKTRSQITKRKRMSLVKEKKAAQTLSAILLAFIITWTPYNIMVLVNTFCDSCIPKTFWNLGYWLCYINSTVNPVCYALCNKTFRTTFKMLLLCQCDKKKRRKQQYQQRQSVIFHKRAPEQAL

Row | Structure (SMILES) | sub-maximal inhibition Dose [1] [nmol/kg] | inhibition at 16 h [1] [%] | lung inflammation and emphysema [2] | reduction of numbers of neutrophils in sputum (COPD patients; COPD patients, oral, over 4 weeks) [%] | improvement of FEV 1 (COPD patients; [4]) | reduction of exacerbation (COPD patients; [4]) | pKi [3] | pIC50 ([3]; read-out: M3 IC50) | pIC50 ([3]; read-out: M3 IC50 activity)
1 | COc1ccc([C@H](Cc2c(Cl)c[n+]([O-])cc2Cl)OC(=O)c2ccc(CNC(CO)(C(=O)OCC3CCN(C)CC3)c3ccccc3)s2)cc1OC (stereo partly drawn) [Example 105, [(1S)-2-(3,5-dichloro-1-oxido-pyridin-1-ium-4-yl)-1-(3,4-dimethoxyphenyl)ethyl] 5-[[[1-(hydroxymethyl)-2-[(1-methyl-4-piperidyl)methoxy]-2-oxo-1-phenyl-ethyl]amino]methyl]thiophene-2-carboxylate] | 30 | 88 |  |  |  |  |  |  | 
2 | O=C(Nc1c(Cl)cncc1Cl)c1ccc(OC(F)F)c(OCC2CC2)c1 [roflumilast] |  |  | inhibits lung inflammation and emphysema | 36 | approximately 50 mL | about 15% |  |  | 
3 | COc1ccc([C@H](Cc2c(Cl)c[n+]([O-])cc2Cl)OC(=O)c2ccc(CNC(C(=O)O[C@H]3CCN(C)C3)c3ccccc3)s2)cc1OC (single isomer, unassigned) [Example 78c, reference compound] | 100 | 26 |  |  |  |  | 9.27 | 8.97 | 
4 | COc1ccc([C@H](Cc2c(Cl)c[n+]([O-])cc2Cl)OC(=O)c2ccc(CNC(C(=O)OC3CCN(C)CC3)c3ccccc3)s2)cc1OC (single isomer, unassigned) [Example 87c, reference compound] | 30 | <10 |  |  |  |  | 9.52 | 9.30 | 
5 | COc1ccc([C@H](Cc2c(Cl)c[n+]([O-])cc2Cl)OC(=O)c2ccc(CNC(C(=O)OC[C@H]3CCN(C)C3)c3ccccc3)s2)cc1OC (stereo partly drawn) [Example 78, [(1S)-2-(3,5-dichloro-1-oxido-pyridin-1-ium-4-yl)-1-(3,4-dimethoxyphenyl)ethyl] 5-[[[2-[[(3S)-1-methylpyrrolidin-3-yl]methoxy]-2-oxo-1-phenyl-ethyl]amino]methyl]thiophene-2-carboxylate] | 30 | 51 |  |  |  |  |  |  | 8.00 to 9.00
6 | COc1ccc([C@H](Cc2c(Cl)c[n+]([O-])cc2Cl)OC(=O)c2ccc(CNC(CO)(C(=O)OC3CCN(C)CC3)c3ccccc3)s2)cc1OC (single isomer, unassigned) [Example 105c, reference compound] | 10 | 35 |  |  |  |  | 9.64 | 9.35 | 
7 | COc1ccc([C@H](Cc2c(Cl)c[n+]([O-])cc2Cl)OC(=O)c2ccc(CNC(C(=O)OCC3CCN(C)CC3)c3ccccc3)s2)cc1OC (stereo partly drawn) [Example 87, [(1S)-2-(3,5-dichloro-1-oxido-pyridin-1-ium-4-yl)-1-(3,4-dimethoxyphenyl)ethyl] 5-[[[2-[(1-methyl-4-piperidyl)methoxy]-2-oxo-1-phenyl-ethyl]amino]methyl]thiophene-2-carboxylate] | 10 | >90 |  |  |  |  |  |  | 
